Consider five compounds from US8440639B2, “Combination compositions for reducing intraocular pressure” (Inotek Pharmaceuticals Corporation, priority 2010, dated 2013).

One may read the Ki as the equilibrium dissociation constant of an inhibitor or competing ligand from its target. High values mean a looser hold on the target, low ones a stronger hold on the target.

The target of this experiment is T1, A1 receptor (Homo sapiens, UniProt P30542).
T1 sequence (P30542 1-326): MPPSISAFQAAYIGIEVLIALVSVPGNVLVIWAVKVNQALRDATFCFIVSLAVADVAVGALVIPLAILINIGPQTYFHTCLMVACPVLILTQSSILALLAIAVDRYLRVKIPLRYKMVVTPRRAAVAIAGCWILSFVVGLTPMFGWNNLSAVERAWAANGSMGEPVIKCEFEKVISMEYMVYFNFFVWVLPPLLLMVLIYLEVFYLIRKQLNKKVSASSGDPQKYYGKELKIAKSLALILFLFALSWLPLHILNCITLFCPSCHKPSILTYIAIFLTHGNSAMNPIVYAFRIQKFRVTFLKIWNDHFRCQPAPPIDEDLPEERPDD
As to the kind of experiment: Adenosine A1 receptor affinity (Ki potency). It is filed as binding. The text has this:
As used herein, the term “A1 agonist” refers to an A1 agonist that has an affinity to the A1 receptor while simultaneously having a lower affinity for the A2 and A3 adenosine receptors.

Where a name gives a salt, the structure may show the parent alone.

Take `O=S(=O)(O)OC[C@H]1O[C@@H](n2cnc3c(NC4CCCCC4)nc(Cl)nc32)[C@H](O)[C@@H]1O` [Compound G, sodium((2R,3S,4R,5R)-5-(2-chloro-6-(cyclohexylamino)-9H-purin-9-yl)-3,4-dihydroxytetrahydrofuran-2-yl)methyl sulfate]: the inhibition constant (Ki) amounted to 1.36 nM. In the case of `O=S(=O)(O)OC[C@H]1O[C@@H](n2cnc3c(NC4CCCC4)ncnc32)[C@H](O)[C@@H]1O` [Compound C, sodium((2R,3S,4R,5R)-5-(6-(cyclopentylamino)-9H-purin-9-yl)-3,4-dihydroxytetrahydrofuran-2-yl)methyl sulfate] it was 4.05 nM; in that of `O=[N+]([O-])OC[C@H]1O[C@@H](n2cnc3c(NC4CCCCC4)ncnc32)[C@H](O)[C@@H]1O` [Compound E, ((2R,3S,4R,5R)-5-(6-(cyclohexylamino)-9H-purin-9-yl)-3,4-dihydroxytetrahydrofuran-2-yl)methyl nitrate], 1.32 nM; in that of `O=[N+]([O-])OC[C@H]1O[C@@H](n2cnc3c(NC4CC5CCC4C5)ncnc32)[C@H](O)[C@@H]1O` (stereo partly drawn) [Compound F, ((2R,3S,4R,5R)-5-(6-(bicycle-[2.2.1]-heptan-2-ylamino)-9H-purin-9-yl)-3,4-dihydroxytetrahydrofuran-2-yl)methyl nitrate], 1.47 nM.

`O=[N+]([O-])OC[C@H]1O[C@@H](n2cnc3c(NC4CCOC4)ncnc32)[C@H](O)[C@@H]1O` (stereo partly drawn) [Compound D, ((2R,3S,4R,5R)-3,4-dihydroxy-5-(6-(tetrahydrofuran-3-ylamino)-9H-purin-9-yl)tetrahydrofuran-2-yl)methyl nitrate] had a Ki of 10.6 nM.
